Measurements as given in publication PMC6803965, “A New Class of β–Pyrrolidino-1,2,3-Triazole Derivatives as β-Adrenergic Receptor Inhibitors: Synthesis, Pharmacological, and Docking Studies” (Molecules, 2019).
Converted amounts (≈) assume the structure as drawn. Where two headings read alike, the source gives them in different places.

Legend:
Malassezia pachydermatis = assay: Antimicrobial well method, zone of inhibition; assay type: cell-based
Method: (§1) Antimicrobial activity was carried out as described previously. Briefly, 20 mL of sterile Mueller Hinton agar (MHA) was poured in the petri plates and kept for solidification. After solidification, the test cultures were swabbed on the top of the media and kept for 10 min to dry. The required concentration (1 mg/well) of synthesized compounds 5a–l was added to each well and left for 30 min at RT for compound diffusion. Ketoconazole (fungi) and streptomycin (bacteria) used for positive controls. The zone of inhibition was recorded in mm and the experiment was repeated twice.

A549 cells = assay: Cytotoxicity, aqueous one solution reagent; assay type: cell-based; conditions: for IC50: 24 h treatment, read-out: IC50 against A549
Method: (§2) The cytotoxic study was carried out as reported previously. Briefly, IMR90, HepG-2, and A549 cells were grown in DMEM (Dulbecco’s Modified Eagle Medium) that contained 10% fetal bovine serum and 1% antibiotics. A total of 15 × 10^3 cells/well were seeded in 96-well plates and incubated under humidified conditions. Cells were treated with varying concentrations of synthesized triazoles for 24 h. After a 24 h treatment, 20 µL aqueous one solution reagent was added to each well and incubated for 3–4 h under a humidified condition. For IMR90 cells, MTT (MTT = 3-(4,5-dimethyl-2-thiazolyl)-2,5-diphenyl-2H-tetrazolium bromide) (5 mg/mL) was added and incubated for 3–4 h in the dark. After incubation, 100 µL of a 10% SDS (Sodium Dodecyl Sulfate) solution (0.01% HCl) was added to each well. The data was taken using an ELISA (enzyme-linked immunosorbent assay) reader at the absorbance of 490 nm for HepG-2 and A549 cells and 570 nm for IMR90 cells. The cell death was calculated using the following formula: Inhibition (%) = ((A − B)/A) × 100 (A—control group, B—treated group).

HepG-2 cells = assay: Cytotoxicity, aqueous one solution reagent; assay type: cell-based; conditions: for IC50: read-out: IC50 against HepG-2
Method: as §2

Enterobacter aerogenes [1] = assay: Antimicrobial well method, zone of inhibition; assay type: cell-based; conditions: Klebsiella aerogenes
Method: as §1

Klebsiella pneumoniae [2] = assay: Antimicrobial well method, zone of inhibition; assay type: cell-based
Method: as §1

Micrococcus luteus [3] = assay: Antimicrobial well method, zone of inhibition; assay type: cell-based
Method: as §1

Proteus vulgaris [4] = assay: Antimicrobial well method, zone of inhibition; assay type: cell-based
Method: as §1

Salmonella paratyphi-B [5] = assay: Antimicrobial well method, zone of inhibition; assay type: cell-based
Method: as §1

Salmonella typhimurium [6] = assay: Antimicrobial well method, zone of inhibition; assay type: cell-based; conditions: Salmonella enterica
Method: as §1

[7] = test system: Staphylococcus aureus-MRSA; assay: Antimicrobial well method, zone of inhibition; assay type: cell-based
Method: as §1

Staphylococcus aureus [8] = assay: Antimicrobial well method, zone of inhibition; assay type: cell-based
Method: as §1

[9] = test system: Staphylococcus epidermidis; assay: Antimicrobial well method, zone of inhibition; assay type: cell-based
Method: as §1

Shigella flexneri [10] = assay: Antimicrobial well method, zone of inhibition; assay type: cell-based
Method: as §1

Enterobacter aerogenes [11] = assay: Minimum inhibitory concentration (MIC); assay type: cell-based; conditions: Klebsiella aerogenes; Enterobacter aerogenes; read-out: Minimum inhibitory concentration
Method: (§3) The MIC experiment was carried out according to the standard reference methods. Briefly, the required concentrations of synthesized compounds 5a–l were dissolved in DMSO (Dimethylsulfoxide) in concentrations of 500 µg/mL, 250 µg/mL, 125 µg/mL, 62.5 µg/mL, 31.25 µg/mL, 15.6 µg/mL, and […]. An inoculum of 100 µL from each well (96-well plate) was inoculated. For the positive control, ketoconazole (fungi) and streptomycin (bacteria) was used. The MIC values for the tested bacteria were identified as the lowest inhibiting concentration of compound on the agar plate in visual growth.

Klebsiella pneumoniae [12] = assay: Minimum inhibitory concentration (MIC); assay type: cell-based; conditions: read-out: Minimum inhibitory concentration
Method: as §3

Micrococcus luteus [13] = assay: Minimum inhibitory concentration (MIC); assay type: cell-based; conditions: read-out: Minimum inhibitory concentration
Method: as §3

Proteus vulgaris [14] = assay: Minimum inhibitory concentration (MIC); assay type: cell-based; conditions: read-out: Minimum inhibitory concentration
Method: as §3

Salmonella paratyphi-B [15] = assay: Minimum inhibitory concentration (MIC); assay type: cell-based
Method: as §3

Salmonella typhimurium [16] = assay: Minimum inhibitory concentration (MIC); assay type: cell-based; conditions: Salmonella enterica, read-out: Minimum inhibitory concentration
Method: as §3

Shigella flexneri [17] = assay: Minimum inhibitory concentration (MIC); assay type: cell-based
Method: as §3

[18] = test system: Staphylococcus aureus-MRSA; assay: Minimum inhibitory concentration (MIC); assay type: cell-based; conditions: read-out: Minimum inhibitory concentration
Method: as §3

Staphylococcus aureus [19] = assay: Minimum inhibitory concentration (MIC); assay type: cell-based; conditions: read-out: Minimum inhibitory concentration
Method: as §3

[20] = test system: Staphylococcus epidermidis; assay: Minimum inhibitory concentration (MIC); assay type: cell-based; conditions: read-out: Minimum inhibitory concentration
Method: as §3

Candida albicans = assay: Antimicrobial well method, zone of inhibition; assay type: cell-based; conditions: 1 mg/well
Method: as §1

IMR90 cells = assay: Cytotoxicity on normal cells, MTT; assay type: cell-based; conditions: IMR-90, human normal IMR90 cells, 24 h treatment, read-out: IC50 against IMR90
Method: as §2

Compound | zone of inhibition at 1 mg/well (Malassezia pachydermatis) | melting point | zone of inhibition at 1 mg/well (Enterobacter aerogenes [1]) | zone of inhibition at 1 mg/well (Klebsiella pneumoniae [2]) | zone of inhibition at 1 mg/well (Micrococcus luteus [3]) | zone of inhibition at 1 mg/well (Proteus vulgaris [4]) | zone of inhibition at 1 mg/well (Salmonella paratyphi-B [5]) | zone of inhibition at 1 mg/well (Salmonella typhimurium [6]) | zone of inhibition at 1 mg/well [7] | zone of inhibition at 1 mg/well (Staphylococcus aureus [8]) | zone of inhibition at 1 mg/well [9] | zone of inhibition at 1 mg/well (Shigella flexneri [10]) | MIC (Enterobacter aerogenes [11]) | MIC (Klebsiella pneumoniae [12]) | MIC (Micrococcus luteus [13]) | MIC (Salmonella paratyphi-B [15]) | MIC (Shigella flexneri [17]) | MIC (Staphylococcus aureus [19]) | MIC [20] | MIC ([18]; Staphylococcus aureus-MRSA) | further results
CCC(C(=O)OCc1cn(C(c2ccccc2)C(C)N2CCCC2)nn1)c1ccccc1 [5l, (1R,2S)-((1-(1-Phenyl-2-(pyrrolidin-1-yl)propyl)-1H-1,2,3-triazol-4-yl)methyl 2-phenylbutanoate] | 12 mm | 127 to 129 °C |  |  |  |  |  |  |  |  |  |  |  |  |  |  |  |  |  |  | 
N.N.[Cl][Pt][Cl] [Cisplatin, reference compound] |  |  |  |  |  |  |  |  |  |  |  |  |  |  |  |  |  |  |  |  | IC50 (A549 cells): 16.4 ± 3.19 µM; IC50 (HepG-2 cells; 24 h treatment): 22.1 ± 3.08 µM
C[C@@H]([C@@H](c1ccccc1)n1cc(CC2(O)CCCCC2)nn1)N1CCCC1 [5b, (1R,2S)-1-((1-(1-Phenyl-2-(pyrrolidin-1-yl)propyl)-1H-1,2,3-triazol-4-yl)methyl) cyclohexanol] |  | 137 to 138 °C | 12 mm | 10 mm | 13 mm | 12 mm | 11 mm | 11 mm | 12 mm | 10 mm | 10 mm |  |  |  |  |  |  |  |  |  | 
[H]/N=C(/N)N[C@H]1[C@H](O)[C@@H](O)[C@H](O[C@@H]2O[C@@H](C)[C@](O)(C=O)[C@H]2O[C@@H]2O[C@@H](CO)[C@H](O)[C@@H](O)[C@@H]2NC)[C@@H](N/C(N)=N\[H])[C@@H]1O [Streptomycin, reference compound] |  |  | 22 mm | 20 mm | 26 mm | 30 mm | 18 mm | 24 mm | 30 mm | 14 mm | 26 mm | 30 mm | 25 µg/mL (≈ 43 µM) | 25 µg/mL (≈ 43 µM) | 6.25 µg/mL (≈ 10.7 µM) | 30 µg/mL (≈ 51.6 µM) | 6.25 µg/mL (≈ 10.7 µM) | 6.25 µg/mL (≈ 10.7 µM) | 25 µg/mL (≈ 43 µM) |  | MIC (Proteus vulgaris [14]): 6.25 µg/mL (≈ 10.7 µM); MIC (Salmonella typhimurium [16]; TYPHIMURIUM): 6.25 µg/mL (≈ 10.7 µM); MIC ([18]; Staphylococcus, MRSA): 6.25 µg/mL (≈ 10.7 µM)
C[C@@H]([C@@H](c1ccccc1)n1cc(COC(=O)C=Cc2ccccc2)nn1)N1CCCC1 [5c, (1R,2S)-(1-(1-Phenyl-2-(pyrrolidin-1-yl)propyl)-1H-1,2,3-triazol-4-yl)methyl cinnamate] |  | 140 to 141 °C | 14 mm | 12 mm | 16 mm | 10 mm | 14 mm | 12 mm | 18 mm | 16 mm | 15 mm | 13 mm | 250 µg/mL (≈ 600 µM) | 500 µg/mL (≈ 1200 µM) | 125 µg/mL (≈ 300 µM) | 250 µg/mL (≈ 600 µM) | 250 µg/mL (≈ 600 µM) | 125 µg/mL (≈ 300 µM) | 250 µg/mL (≈ 600 µM) | 125 µg/mL (≈ 300 µM) | MIC (Proteus vulgaris [14]): 500 µg/mL (≈ 1200 µM); MIC (Salmonella typhimurium [16]; Salmonella typhimurium): 500 µg/mL (≈ 1200 µM)
C[C@@H]([C@@H](c1ccccc1)n1cc(COC(=O)c2ccccc2)nn1)N1CCCC1 [5d, (1R,2S)-(1-(1-Phenyl-2-(pyrrolidin-1-yl)propyl)-1H-1,2,3-triazol-4-yl)methyl benzoate] | 10 mm | 129 to 130 °C | 10 mm |  | 19 mm |  | 14 mm | 12 mm | 16 mm | 13 mm | 13 mm | 13 mm | 500 µg/mL (≈ 1280 µM) |  | 62.5 µg/mL (≈ 160 µM) | 250 µg/mL (≈ 640 µM) | 250 µg/mL (≈ 640 µM) | 250 µg/mL (≈ 640 µM) | 250 µg/mL (≈ 640 µM) | 125 µg/mL (≈ 320 µM) | zone of inhibition (Candida albicans): 13 mm; MIC (Salmonella typhimurium [16]; Salmonella typhimurium): 500 µg/mL (≈ 1280 µM)
CC([C@@H](c1ccccc1)n1cc(CN(C)[C@@H](C)Cc2ccccc2)nn1)N1CCCC1 (stereo partly drawn) [5f, (1R,2S)-N-Methyl-1-phenyl-N-((1-(1-phenyl-2-(pyrrolidin-1-yl)propyl)-1H-1,2,3-triazol-4-yl)methyl)propan-2-amine] | 12 mm | 118 to 119 °C |  | 18 mm | 13 mm |  | 14 mm |  | 15 mm |  | 17 mm | 19 mm |  | 125 µg/mL (≈ 299 µM) | 250 µg/mL (≈ 599 µM) | 250 µg/mL (≈ 599 µM) | 62.5 µg/mL (≈ 150 µM) |  | 125 µg/mL (≈ 299 µM) | 250 µg/mL (≈ 599 µM) | 
CC(=O)N1CCN(c2ccc(OCC3COC(Cn4ccnc4)(c4ccc(Cl)cc4Cl)O3)cc2)CC1 (centres unmarked) [Ketoconazole, reference compound] | 26 mm |  |  |  |  |  |  |  |  |  |  |  |  |  |  |  |  |  |  |  | zone of inhibition (Candida albicans): 28 mm
COc1ccc(Br)c(C(=O)OCc2cn(C(c3ccccc3)C(C)N3CCCC3)nn2)c1 [5e, (1R,2S)-(1-(1-Phenyl-2-(pyrrolidin-1-yl)propyl)-1H-1,2,3-triazol-4-yl)methyl-2-bromo-5-methoxy benzoate] | 14 mm |  | 10 mm | 10 mm | 15 mm | 13 mm | 10 mm | 12 mm | 10 mm | 12 mm | 10 mm | 15 mm |  |  |  |  |  |  |  |  | zone of inhibition (Candida albicans): 15 mm; cytotoxic / anticancer activity against A549 cells (A549 cells): promising anticancer activity; IC50 (A549 cells; Homo sapiens): 130 ± 0.65 µM; cytotoxic activity against HepG-2 cells (HepG-2 cells): moderate activity; IC50 (HepG-2 cells; Homo sapiens, HepG2, 24 h treatment): 164 ± 2.01 µM; IC50 (IMR90 cells): > 250 µM
